Consider 2 molecules from patent US11162077B2, “Apicidin-containing composition for inducing differentiation of mesenchymal stem cells into cardiac-committed cells” (CHONNAM NATIONAL UNIVERSITY HOSPITAL, priority 2015, dated 2021).

This experiment deals with human bone marrow-derived MSCs. Put plainly: Real-time PCR of cardiac-specific marker genes after MSCs are treated with HDAC inhibitors. In kind it is cell-based. To be noted: 24 hours, TSA 0.5 μM, VPA 3 mM, AC 1 and 3 μM, vs vehicle, FIG. 1. As for the experimental part: First, MSCs prepared in Example 1 were cultured for one day in a 6-well culture plate containing HIGH glucose/DMEM (4 mM L-glutamine, 4500 mg/L glucose, sodium pyruvate, 10% FBS, 100 U/ml penicillin, 100 μg/ml streptomycin), and then treated with TSA (0.5 μM), VPA (3 mM), and AC (1 and 3 μM) for 24 hours.
Afterward, the cell culture medium was removed from each sample, washed with PBS once, and homogenized with TRIzol for 10 minutes at room temperature, followed by centrifugation after the addition of chloroform. A supernatant obtained by centrifugation was harvested to purify total RNA, and cDNA was synthesized using a reverse transcriptase (MMLV) to be used as a template, followed by real-time PCR performed using the QuantiTect SYBR Green PCR kit. Accordingly, expression levels of the cardiac-specific marker genes (GATA4, Nkx2.5 and cTnI) were confirmed.
Background: Quantitative PCR measures a nucleic acid by following its amplification.

Each structure is given as a SMILES string.

For the molecule `CC(/C=C/C(=O)NO)=C\[C@@H](C)C(=O)c1ccc(N(C)C)cc1` [TSA, trichostatin A], the “mRNA expression of GATA4” value is reported as “no specific effect”, the “mRNA expression of Nkx2.5” value is “no specific effect” and the “mRNA expression of cTnI” value was “had significance”.
As to `CCCC(CCC)C(=O)O` [VPA, valproic acid], the “mRNA expression of GATA4” value is on record as “promoted” and the “mRNA expression of cTnI” value is “promoted”.
